The values that follow come from patent publication US11066668B2, “Compositions and methods for modulation of IKBKAP splicing” (Ionis Pharmaceuticals, Inc., priority 2012, dated 2021).

Oligonucleotides are written 5' to 3', each unit as a sugar letter and its base; * is a phosphorothioate linkage, no mark a phosphodiester; rarer units and linkages stand in square brackets, end groups in braces. Plain capitals give the bases only. e = 2'-O-(2-methoxyethyl) (MOE); [5mC] = 5-methylcytosine

The subject of data set [1] is IKBKAP pre-mRNA (mt19-21 minigene). Nature of the data set: Exon 20 inclusion in HEK-293 cells harboring the mt19-21 IKBKAP minigene (RT-PCR). The format is cell-based, human. Conditions: Table 2 (microwalk experiment); HEK-293 with mt19-21 minigene, 0.007 nmol oligonucleotide by electroporation, RT-PCR two days later. In outline:
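HEK-293 cells carrying the mt19-21 IKBKAP minigene were electroporated with 0.007 nmol uniform 2′-MOE phosphate-backbone antisense oligonucleotide (15- or 20-mers, 5-methylcytosines). After two days, RT-PCR with α^32P-dCTP-labeled amplicons, native PAGE and phosphorimaging gave exon 20 inclusion, normalized for G+C content.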

The subject of data set [2] is human IKBKAP mRNA. Nature of the data set: Exon 20 inclusion in neonatal transgenic mice after single ICV or subcutaneous injection. Conditions: neonatal Tg mice. In kind it is in vivo, mouse. On the procedure: To investigate the effect of ISIS 421992 in an animal model, transgenic mice that carry the entire human IKBKAP gene with the major FD mutation, in addition to being homozygous wild type at the mouse Ikbkap locus, were obtained from an NIH core facility.
Neonatal transgenic mice were also treated with ISIS 421992 administered as a single ICV injection dose of 2.5 μg, 5 μg, 10 μg, 20 μg, or 30 μg. A group of neonatal mice were treated with ISIS 421992 administered subcutaneously using a 10 μL micro syringe (Hamilton) and a 33-gauge needle. In all cases, the injections were administered at P1 and the RNA was assayed at P8. The RNA splicing patterns in the various tissues after administering ISIS 421992 in neonate mice were then observed. Multiple lanes for each condition represent independent experiments.

For “ISIS 421992: uniform 2′-MOE 20-mer, phosphate backbone; GTCGCAAACAGTACAATGGC, SEQ ID NO 61, intron 20 (eGeTe[5mC]eGe[5mC]eAeAeAe[5mC]eAeGeTeAe[5mC]eAeAeTeGeGe[5mC])”, the “% inclusion (exon 20)” value in data set [1] is listed as 96%. The “tissue pattern of full-length IKBKAP mRNA, in words” value was “increased full-length IKBKAP mRNA in the brain and spinal cord, with moderate effects in the peripheral tissues” in data set [2] (ICV administration); “primarily affected expression in the liver, skeletal muscle, and heart with moderate effects in the CNS” in data set [2] (subcutaneous administration). The “Percent inclusion of exon 20 in human IKBKAP mRNA” value (shortened to “Percent inclusion”) in data set [2] (ICV administration, Brain) was determined as 50%; in data set [2] (ICV administration, Heart) it was 40%; in data set [2] (ICV administration, Kidney) it was 33%; in data set [2] (ICV administration, Liver) it was 44%; in data set [2] (ICV administration, Muscle), 33%; in data set [2] (ICV administration, Spinal Cord), 47%. Besides, the “Percent inclusion” value in data set [2] (s.c. injection, Brain) came out at 18%; in data set [2] (s.c. injection, Heart), 58%; in data set [2] (s.c. injection, Kidney) it was 36%; in data set [2] (s.c. injection, Liver), 72%; in data set [2] (s.c. injection, Muscle), 60%; in data set [2] (s.c. injection, Spinal Cord), 19%. The “Percent inclusion” value in data set [2] (single ICV injection 2.5 μg at P1, RNA at P8) came to 13%; in data set [2] (single ICV injection 5 μg at P1, RNA at P8), 18%; in data set [2] (single ICV injection 10 μg at P1, RNA at P8), 34%; in data set [2] (single ICV injection 20 μg at P1, RNA at P8), 36%; in data set [2] (single ICV injection 30 μg at P1, RNA at P8), 48%.
